Assays:
[1] = test system: juvenile soft ticks (Ornithodoros moubata); test: Guinea pig - efficacy against argaside tick; format: in vivo
Procedure: (§1) Guinea pigs were locally co-infested (using an infestation device on a shaved skin area) with juvenile soft ticks (Ornithodoros moubata) and bed bugs (Cimex lectularius) before the treatment day (Day 0) to provide a baseline-negative control value. Guinea pigs were treated orally (by gavage) or subcutaneously at a dose of 5 mg/kg bodyweight of a test compound in a formulation of 10% DMF/Emulsifier+90% Aqua ad injectabilia.
(§2) Repeated local infestations with both parasites were performed at different time points after treatment. Within approximately 45 min after each infestation ten engorged ticks and ten engorged bed bugs were • collected and the percentage of dead and damaged parasites per species were • assessed approximately 24 hours following collection. The efficacy was • calculated as % of inhibition ‘killed+damaged’ parasites in a treated group in comparison to the baseline-negative control (using a modified Schneider Orelli's formula).
(§3) Results: Activity of the test compounds at different evaluation time-points (≥80% inhibition were found active): […]

[2] = test system: bed bugs (Cimex lectularius); test: Guinea pig - efficacy against bed bug; format: in vivo; conditions: Day 0
Procedure: as §1, §2, §3

[3] = test system: Copepodids (juvenile sea lice stage of Lepeophtheirus salmonis); test: Juvenile sea lice contact assay; conditions: ~24 h
Procedure: Copepodids (juvenile sea lice stage of Lepeophtheirus salmonis) were exposed to seawater spiked with declining concentrations of a test compound (dissolved in a DMSO sea-water mixture). Sea lice inhibition (% of dead+damaged copepodids) was assessed after approximately 24 hours of continuous exposure. The vitality of used parasites was confirmed in a negative (solvent) control group.

[4] = test system: Mobile stages of sea lice (pre-adults, adults of Lepeophtheirus salmonis); test: Adult sea lice contact assay; conditions: pre-adults/adults, assessed after ~1 and 24 h, read-out: EC50 (sea lice inhibition, dead+damaged)
Procedure: Mobile stages of sea lice (i.e., pre-adults, adults of Lepeophtheirus salmonis) were exposed to seawater spiked with declining concentrations of a test compound (dissolved in a PEG sea-water mixture). Sea lice inhibition (% of dead+damaged sea lice) was assessed after approximately 1 and 24 hours of continuous exposure in comparison to a negative (solvent) control group.

Lepeophtheirus salmonis = test: Salmon - in vivo efficacy against sea lice using gavage administration; conditions: 5 mg/kg once by gavage; for therapeutic efficacy against juvenile sea lice (% reduction vs control): day -3 infestation; for therapeutic efficacy against juvenile sea lice (% reduction vs control) / prophylactic efficacy at re-infestation on Day 17 (% reduction vs control): counted around day 28; for therapeutic efficacy against (pre-)adult sea lice (% reduction vs control): day -28 infestation, counted day 7
Procedure: Salmon (Salmo solar) were treated once orally by gavage at a dose of 5 mg/kg bodyweight per fish (Day 0). As formulation DMSO 5%/fish oil 95% was used. Salmon of the negative control group received only the excipients of the formulation.
The fish were infested with Lepeophtheirus salmonis copepodids twice before treatment (i.e., around day −28 and day −3) and once after treatment (i.e., day 17).
Around day 28 (end of animal phase), fish were euthanized, and lice on each fish were classified ((pre-)adult or juvenile stage) and counted. […] Efficacy is expressed as a % reduction of sea lice in treated groups versus a control group, using the Abbott's formula.

[5] = test system: Cabbage Looper (Trichoplusia ni); conditions: 128-well diet tray, average of eight wells, cited from earlier work; for Test B: Bioassay on CL, percent mortality rating: Cabbage Looper second instar larvae, 50 μg/cm^2, five to seven days; for Test B: percent mortality of Cabbage Looper (CL) larvae, rating: 50 μg/cm^2 on artificial diet, second instar larvae, 5-7 days
[6] = test system: Beet Armyworm (Spodoptera exigua); conditions: 128-well diet tray, average of eight wells, cited from earlier work; for Test A: Bioassay on BAW, percent mortality rating: Beet Armyworm second instar larvae, 50 μg/cm^2, five to seven days; for Test A: percent mortality of Beet Armyworm (BAW) larvae, rating: 50 μg/cm^2 on artificial diet, second instar larvae, 5-7 days
[7] = test system: Yellow Fever Mosquito (Aedes aegypti); conditions: 96-well plate, cited from earlier work; for Test C: Bioassay on Yellow Fever Mosquito, mortality rating: Aedes aegypti larvae about 1 day old, scored after 3 days; for Test C: mortality of Yellow Fever Mosquito larvae, rating: about 1 day-old larvae, graded after 3 days at room temperature

| SMILES | Test B: Bioassay on CL, percent mortality rating [5] | Test A: Bioassay on BAW, percent mortality rating [6] | Test C: Bioassay on Yellow Fever Mosquito, mortality rating [7] | Test B: percent mortality of Cabbage Looper (CL) larvae, rating [5] | Test A: percent mortality of Beet Armyworm (BAW) larvae, rating [6] | Test C: mortality of Yellow Fever Mosquito larvae, rating [7] | further results |
| --- | --- | --- | --- | --- | --- | --- | --- |
| Cc1cc(NC(=O)c2cc(NC(=O)[C@H]3[C@H](c4cc(Cl)cc(Cl)c4)C3(Cl)Cl)ccc2Cl)ncc1F [Compound 454] |  |  |  |  |  |  | activity against tick nymphs (≥80% inhibition, killed+damaged) ([1]; 5 mg/kg oral, Day 0): immediate activity; activity against tick nymphs (≥80% inhibition, killed+damaged) ([1]; 5 mg/kg subcutaneous, Day 0): immediate activity; activity against tick nymphs (≥80% inhibition, killed+damaged) ([1]; 5 mg/kg subcutaneous, after 7 days): activity; activity against tick nymphs (≥80% inhibition, killed+damaged) ([1]; 5 mg/kg subcutaneous, after 10 days): activity; duration of efficacy, subcutaneous compared with oral administration ([1]; 5 mg/kg, ticks and bed bugs): longer duration of efficacy; activity against bed bugs (≥80% inhibition, killed+damaged) ([2]; 5 mg/kg oral): immediate activity; activity against bed bugs (≥80% inhibition, killed+damaged) ([2]; 5 mg/kg subcutaneous): immediate activity; inhibition at 0.1 µM ([3]; Lepeophtheirus salmonis, 100 nM in seawater, read-out: Sea lice inhibition (% of dead+damaged copepodids)): 100%; EC50 [4]: ≤ 10 nM |
| Cc1c(F)cc(NC(=O)C2C(c3cc(Cl)cc(Cl)c3)C2(Cl)Cl)cc1C(=O)Nc1ncc(F)cc1F (centres unmarked) [Compound 457] |  |  |  |  |  |  | therapeutic efficacy against juvenile sea lice (% reduction vs control) (Lepeophtheirus salmonis): 100%; therapeutic efficacy against (pre-)adult sea lice (% reduction vs control) (Lepeophtheirus salmonis): 80% |
| O=C(Nc1c(F)cccc1F)c1cc(NC(=O)C2C(c3cc(Cl)cc(Cl)c3)C2(Cl)Cl)ccc1Cl (centres unmarked) [Compound 458] |  |  |  |  |  |  | prophylactic efficacy at re-infestation on Day 17 (% reduction vs control) (Lepeophtheirus salmonis): 80%; therapeutic efficacy against juvenile sea lice (% reduction vs control) (Lepeophtheirus salmonis): 100%; therapeutic efficacy against (pre-)adult sea lice (% reduction vs control) (Lepeophtheirus salmonis): 100% |
| O=C(Nc1ncc(F)cc1F)c1cc(NC(=O)C2C(c3cc(Cl)cc(Cl)c3)C2(Cl)Cl)ccc1F (centres unmarked) [Compound 463] |  |  |  |  |  |  | Sea lice inhibition (% of dead+damaged copepodids) ([3]; 1 nM in seawater): 100%; therapeutic efficacy against juvenile sea lice (% reduction vs control) (Lepeophtheirus salmonis): 100%; therapeutic efficacy against (pre-)adult sea lice (% reduction vs control) (Lepeophtheirus salmonis): 100% |
| O=C(Nc1ncc(F)cc1F)c1cc(NC(=O)C2C(c3cc(Cl)cc(Cl)c3)C2(Cl)Cl)cc(F)c1Cl (centres unmarked) [Compound 464] |  |  |  |  |  |  | prophylactic efficacy at re-infestation on Day 17 (% reduction vs control) (Lepeophtheirus salmonis): 100%; therapeutic efficacy against juvenile sea lice (% reduction vs control) (Lepeophtheirus salmonis): 100%; therapeutic efficacy against (pre-)adult sea lice (% reduction vs control) (Lepeophtheirus salmonis): 100% |
| O=C(Nc1ncc(F)cc1F)c1cc(NC(=O)C2C(c3cc(F)c(F)c(F)c3)C2(Cl)Cl)ccc1Cl (centres unmarked) [Compound 478] |  |  |  |  |  |  | therapeutic efficacy against juvenile sea lice (% reduction vs control) (Lepeophtheirus salmonis): 80%; therapeutic efficacy against (pre-)adult sea lice (% reduction vs control) (Lepeophtheirus salmonis): 100% |
| O=C(Nc1ncc(F)cc1F)c1cc(NC(=O)C2C(c3cc(F)c(F)c(F)c3)C2(Cl)Cl)ccc1F (centres unmarked) [Compound 479] |  |  |  |  |  |  | therapeutic efficacy against juvenile sea lice (% reduction vs control) (Lepeophtheirus salmonis): 80%; therapeutic efficacy against (pre-)adult sea lice (% reduction vs control) (Lepeophtheirus salmonis): 100% |
| O=C(Nc1ncc(F)cc1F)c1c(F)ccc(NC(=O)C2C(c3cc(Cl)cc(Cl)c3)C2(Cl)Cl)c1F (centres unmarked) [Compound 480] |  |  |  |  |  |  | therapeutic efficacy against juvenile sea lice (% reduction vs control) (Lepeophtheirus salmonis): 100%; therapeutic efficacy against (pre-)adult sea lice (% reduction vs control) (Lepeophtheirus salmonis): 100% |
| O=C(Nc1cncc([N+](=O)[O-])c1)c1cc(NC(=O)C2C(c3cc(Cl)cc(Cl)c3)C2(Cl)Cl)ccc1Cl (centres unmarked) [c106] | A (50-100) | A (50-100) | A (80-100) |  |  |  |  |
| O=C(Nc1cncc([N+](=O)[O-])c1)c1cc(NC(=O)C2C(c3ccc(Cl)c(Cl)c3)C2(Cl)Cl)ccc1Cl (centres unmarked) [c107] | A (50-100) | A (50-100) | A (80-100) |  |  |  |  |
| O=C(Nc1cncc(NO)c1)c1cc(NC(=O)C2C(c3cc(Cl)cc(Cl)c3)C2(Cl)Cl)ccc1Cl (centres unmarked) [c108] | A (50-100) | A (50-100) | A (80-100) |  |  |  |  |
| Nc1cncc(NC(=O)c2cc(NC(=O)C3C(c4cc(Cl)cc(Cl)c4)C3(Cl)Cl)ccc2Cl)c1 (centres unmarked) [c109] | A (50-100) | A (50-100) | A (80-100) |  |  |  |  |
| O=C(Nc1cncc(NO)c1)c1cc(NC(=O)C2C(c3ccc(Cl)c(Cl)c3)C2(Cl)Cl)ccc1Cl (centres unmarked) [c110] | A (50-100) | A (50-100) | A (80-100) |  |  |  |  |
| Nc1cncc(NC(=O)c2cc(NC(=O)C3C(c4ccc(Cl)c(Cl)c4)C3(Cl)Cl)ccc2Cl)c1 (centres unmarked) [c111] | A (50-100) | A (50-100) | A (80-100) |  |  |  |  |
| Cn1ccc2c(NC(=O)c3cc(NC(=O)C4C(c5cc(Cl)cc(Cl)c5)C4(Cl)Cl)ccc3Cl)cccc21 (centres unmarked) [c112] | A (50-100) | A (50-100) | A (80-100) |  |  |  |  |
| Cn1ccc2cccc(NC(=O)c3cc(NC(=O)C4C(c5cc(Cl)cc(Cl)c5)C4(Cl)Cl)ccc3Cl)c21 (centres unmarked) [c113] | A (50-100) | A (50-100) | A (80-100) |  |  |  |  |
| Cc1cc(N)ccc1NC(=O)c1cc(NC(=O)C2C(c3ccc(Cl)c(Cl)c3)C2(Cl)Cl)ccc1Cl (centres unmarked) [c114] | A (50-100) | A (50-100) | A (80-100) |  |  |  |  |
| COCC(=O)N(C)c1ccc(NC(=O)c2cc(NC(=O)C3C(c4cc(Cl)cc(Cl)c4)C3(Cl)Cl)ccc2Cl)cc1 (centres unmarked) [c115] |  |  |  | A (50-100) | A (50-100) | B (More than 0 - Less than 80) |  |
| CNc1ccc(NC(=O)c2cc(NC(=O)C3C(c4cc(Cl)cc(Cl)c4)C3(Cl)Cl)ccc2Cl)cc1C (centres unmarked) [c116] |  |  |  | A (50-100) | A (50-100) | A (80-100) |  |
| CC(=O)Nc1ccc(NC(=O)c2cc(NC(=O)C3C(c4ccc(F)c(Cl)c4)C3(Cl)Cl)ccc2Cl)cc1 (centres unmarked) [c117] |  |  |  | A (50-100) | A (50-100) | A (80-100) |  |
| CC(=O)Nc1ccc(NC(=O)c2cc(NC(=O)[C@H]3[C@H](c4ccc(F)c(Cl)c4)C3(Cl)Cl)cc(Cl)c2C)cc1 [c118] |  |  |  | A (50-100) | A (50-100) | A (80-100) |  |
| O=C(Nc1ccccc1)c1cc(NC(=O)[C@H]2[C@H](c3ccc(F)c(Cl)c3)C2(Cl)Cl)cc(C(F)(F)F)c1Cl [c121] |  |  |  | A (50-100) | A (50-100) | A (80-100) |  |
| O=C(Nc1ccccc1)c1c(Cl)ccc(NC(=O)[C@H]2[C@H](c3ccc(F)c(Cl)c3)C2(Cl)Cl)c1Cl [c122] |  |  |  | A (50-100) | A (50-100) | A (80-100) |  |
| Cc1c(N)ccc(NC(=O)c2cc(NC(=O)C3C(c4ccc(F)c(C(F)(F)F)c4)C3(Cl)Cl)ccc2Cl)c1C (centres unmarked) [c123] |  |  |  | A (50-100) | A (50-100) | A (80-100) |  |
| Cc1c(NC(=O)c2cc(NC(=O)C3C(c4ccc(F)c(C(F)(F)F)c4)C3(Cl)Cl)ccc2Cl)ccc(NC(=O)C(F)(F)F)c1C (centres unmarked) [c124] |  |  |  | A (50-100) | A (50-100) | A (80-100) |  |
| Cc1c(NC(=O)c2cc(NC(=O)C3C(c4ccc(F)c(C(F)(F)F)c4)C3(Cl)Cl)ccc2Cl)cccc1NC(=O)C(F)(F)F (centres unmarked) [c125] |  |  |  | A (50-100) | A (50-100) | A (80-100) |  |

Source: patent US20240315993A1, “ANTIPARASITIC COMPOUNDS” (Intervet Inc., priority 2021, published 2024)
